Laboratory results taken from patent US5565432A (American Home Products Corporation, priority 1994, dated 1996).
Counter-ions that a name gives are not always drawn.

Experiments:
normal human plasma = assay: Anticoagulant activity, partial thromboplastin time (APTT) assay; conditions: for Anticoagulation Activity (APTT) Relative to Heparin: ratio>1 indicates weaker activity relative to heparin on a μg/mL basis
Method: The anticlotting activity of the compounds of this invention were evaluated in a partial thromboplastin time (APTT) assay using normal human plasma collected from 5 donors using the procedure of Fenichel et. al. (Clin. Chem. 1964, 10, 69). A BBL Fibrometer automatic precesion coagulation timer utilizing a 0.3 ml probe was employed. An Ellagic acid activated partial thromboplastin was used for these experiments. This reagent is added to human citrated plasma equilibrated at 37° C. in a plastic well in the clot timer. Calcium at 37° C. is added, the clot timer is started and the time for fibrin clot formation (in seconds) was recorded. The effect of the compounds, added to plasma, over a concentration of 12.5-200 μg/mL was determined. […] An unfractionated heparin comparator was used over the concentration range of 1.25-10 μg/mL. Clotting tests at all concentrations were run in triplicate. Analysis of variance for a randomized block design was used to determine the significance of differences observed in the clotting times. The potency is reported relative to heparin wherein ratio>1 indicates weaker activity relative to heparin on a μg/mL basis.

restenosis = conditions: prior art; cited from earlier work
smooth muscle cell = conditions: prior art; cited from earlier work
[1] = system: human aortic endothelial cells; assay: Effect on human endothelial cell growth; assay type: cell-based; conditions: driven by 2% FBS, at doses inhibitory towards human smooth muscle cell proliferation driven by 10% FBS (FIG. 1)
Method: The ability of the compounds of the present invention to inhibit smooth muscle cell proliferation and modulate endothelial cell growth was established using isolated aortic cells obtained from commercial sources or, for certain species, prepared in-house. Cell lines used in this study include human and porcine aortic smooth muscle cells and human aortic endothelial cells. Human aortic cell lines were obtained from Clonetics Corporation (San Diego).
Cells were assayed in early passage (generally passage 3-7) at sub-confluent conditions. Cultures were grown in 16 mm (24 well) multi-well culture dishes in media 199 supplemented with 10% fetal bovine serum and 2% antibiotic/antimycotic. At sub-confluence, the cells were placed in a defined serum free medium (AIM-V; Gibco) for 24-48 h prior to initiating the experimental protocol.
Growth factor and serum stimulations were optimized for each cell type.
Compounds were added to each well at 50 fold dilution (20 μL/well) and the plates were incubated for 24-36 h at 37° C. in 5% CO2. […] Compounds were routinely assayed at 1, 10, and 100 μM. […]
Data was obtained, in triplicate, for both control and experimental samples. […] Data was expressed as a percent of control from which IC50 s could be determined. […]

[2] = system: common carotid artery, intimal thickening; assay: Experimental model of restenosis (air-dried carotid artery), intimal thickening; assay type: in vivo, Male Sprague-Dawley Rats; conditions: in comparison to untreated animals; dose of 125 μg/mL, i.v. osmotic pump, 2 weeks
From the text: Male Sprague-Dawley Rats weighing between 0.3-0.4 kg were housed in polycarbonate cages (2 per box) with corn cob bedding and provided with Purina 5001 rat chow and water (ad. lib. A 12 hr/12 hr light: dark cycle was maintained with light on at 7:00 A.M). After acclimation, rats were randomly assigned to treatment groups (12 per group). The rats were anesthetized with Ketamine, Acepromazone, and Xylazine. The anterior portion of the neck was shaved, a 3 cm incision was made along the midline, and the trachea was exposed by gently parting the underlying tissues and muscle. A retractor was inserted to hold the muscles and tissues aside and the common carotid artery was isolated from the surrounding tissue. A 2 cm segment of the right common carotid artery was lifted such that an 11 mm approximator was placed on the vessel at about […] before the bifurcation of the internal and external branches of the carotid artery. The 5 mm segment of the common carotid artery between the clamps of the approximator was punctured at about 0.5 mm from the edge of each clamp with a 30 G needle and a gentle stream of isotonic saline was injected through the isolated segment to flush out any blood. […]
Two weeks following surgery, the rats were sacrificed via anesthetized exsanquination. […] The cross sections were photographed and the arterial media and intima were digitized and measured. […]

## Cc1ccc(CO[C@@H]2O[C@H](COS(=O)(=O)O)[C@@H](O[C@@H]3O[C@H](COS(=O)(=O)O)[C@@H](OS(=O)(=O)O)[C@H](OS(=O)(=O)O)[C@H]3OS(=O)(=O)O)[C@H](OS(=O)(=O)O)[C@H]2OS(=O)(=O)O)cc1NC(=O)c1cc(C(=O)Nc2cc(CO[C@@H]3O[C@H](COS(=O)(=O)O)[C@@H](O[C@@H]4O[C@H](COS(=O)(=O)O)[C@@H](OS(=O)(=O)O)[C@H](OS(=O)(=O)O)[C@H]4OS(=O)(=O)O)[C@H](OS(=O)(=O)O)[C@H]3OS(=O)(=O)O)ccc2C)cc(C(=O)Nc2cc(CO[C@@H]3O[C@H](COS(=O)(=O)O)[C@@H](O[C@@H]4O[C@H](COS(=O)(=O)O)[C@@H](OS(=O)(=O)O)[C@H](OS(=O)(=O)O)[C@H]4OS(=O)(=O)O)[C@H](OS(=O)(=O)O)[C@H]3OS(=O)(=O)O)ccc2C)c1 [Example 9, Benzene-1,3,5-tricarboxylic Acid Tris{[2-methyl-5-(hepta-O-sulfato-β-cellobiosyloxymethyl)phenyl]amide}Heneicosasodium Salt]
Normal human plasma; at 25-200 μg/mL
  Anticoagulation Activity (APTT), in words: no signifcant

## O=C(Nc1cc(CO[C@@H]2O[C@H](COS(=O)(=O)O)[C@@H](O[C@@H]3O[C@H](COS(=O)(=O)O)[C@@H](OS(=O)(=O)O)[C@H](OS(=O)(=O)O)[C@H]3OS(=O)(=O)O)[C@H](OS(=O)(=O)O)[C@H]2OS(=O)(=O)O)cc(CO[C@@H]2O[C@H](COS(=O)(=O)O)[C@@H](O[C@@H]3O[C@H](COS(=O)(=O)O)[C@@H](OS(=O)(=O)O)[C@H](OS(=O)(=O)O)[C@H]3OS(=O)(=O)O)[C@H](OS(=O)(=O)O)[C@H]2OS(=O)(=O)O)c1)c1cc(C(=O)Nc2cc(CO[C@@H]3O[C@H](COS(=O)(=O)O)[C@@H](O[C@@H]4O[C@H](COS(=O)(=O)O)[C@@H](OS(=O)(=O)O)[C@H](OS(=O)(=O)O)[C@H]4OS(=O)(=O)O)[C@H](OS(=O)(=O)O)[C@H]3OS(=O)(=O)O)cc(CO[C@@H]3O[C@H](COS(=O)(=O)O)[C@@H](O[C@@H]4O[C@H](COS(=O)(=O)O)[C@@H](OS(=O)(=O)O)[C@H](OS(=O)(=O)O)[C@H]4OS(=O)(=O)O)[C@H](OS(=O)(=O)O)[C@H]3OS(=O)(=O)O)c2)cc(C(=O)Nc2cc(CO[C@@H]3O[C@H](COS(=O)(=O)O)[C@@H](O[C@@H]4O[C@H](COS(=O)(=O)O)[C@@H](OS(=O)(=O)O)[C@H](OS(=O)(=O)O)[C@H]4OS(=O)(=O)O)[C@H](OS(=O)(=O)O)[C@H]3OS(=O)(=O)O)cc(CO[C@@H]3O[C@H](COS(=O)(=O)O)[C@@H](O[C@@H]4O[C@H](COS(=O)(=O)O)[C@@H](OS(=O)(=O)O)[C@H](OS(=O)(=O)O)[C@H]4OS(=O)(=O)O)[C@H](OS(=O)(=O)O)[C@H]3OS(=O)(=O)O)c2)c1 [Example 14, Benzene-1,3,5-tricarboxylic Acid Tris{[3,5-bis-(hepta-O-sulfato-β-D-cellobiosyloxymethyl)phenyl]amide}Tetratetracontasodium Salt]
Normal human plasma
  Anticoagulation Activity (APTT) Relative to Heparin: 3.1

## Beta-Cyclodextrin tetradecasulfate
restenosis
  inhibition of restenosis (literature): effective inhibitor of restenosis
Smooth muscle cell
  SMC proliferation inhibition (literature): smooth muscle cell proliferation inhibitor

## O=C(Nc1cc(CO[C@@H]2O[C@H](COS(=O)(=O)O)[C@@H](O[C@@H]3O[C@H](COS(=O)(=O)O)[C@@H](OS(=O)(=O)O)[C@H](OS(=O)(=O)O)[C@H]3OS(=O)(=O)O)[C@H](OS(=O)(=O)O)[C@H]2OS(=O)(=O)O)ccc1Cl)c1cc(C(=O)Nc2cc(CO[C@@H]3O[C@H](COS(=O)(=O)O)[C@@H](O[C@@H]4O[C@H](COS(=O)(=O)O)[C@@H](OS(=O)(=O)O)[C@H](OS(=O)(=O)O)[C@H]4OS(=O)(=O)O)[C@H](OS(=O)(=O)O)[C@H]3OS(=O)(=O)O)ccc2Cl)cc(C(=O)Nc2cc(CO[C@@H]3O[C@H](COS(=O)(=O)O)[C@@H](O[C@@H]4O[C@H](COS(=O)(=O)O)[C@@H](OS(=O)(=O)O)[C@H](OS(=O)(=O)O)[C@H]4OS(=O)(=O)O)[C@H](OS(=O)(=O)O)[C@H]3OS(=O)(=O)O)ccc2Cl)c1 [Example 11]
[1]
  human endothelial cell growth: enhance human endothelial cell growth
[2]
  inhibition of intimal thickening: 50%
Normal human plasma
  Anticoagulation Activity (APTT) Relative to Heparin: 72
